Values quoted from earlier work, collected in patent US8173626B2, “Methods, dosing regimens and medications using anti-progestational agents for the treatment of disorders” (Danco Laboratories LLC, priority 2006, dated 2012).
Read-outs that look alike come from different tables or passages of the source.

Experiments:
glucocorticoid receptors = target: T1, glucocorticoid receptors (Homo sapiens, UniProt P04150); settings: cited from earlier work
T1 sequence (P04150 1-777): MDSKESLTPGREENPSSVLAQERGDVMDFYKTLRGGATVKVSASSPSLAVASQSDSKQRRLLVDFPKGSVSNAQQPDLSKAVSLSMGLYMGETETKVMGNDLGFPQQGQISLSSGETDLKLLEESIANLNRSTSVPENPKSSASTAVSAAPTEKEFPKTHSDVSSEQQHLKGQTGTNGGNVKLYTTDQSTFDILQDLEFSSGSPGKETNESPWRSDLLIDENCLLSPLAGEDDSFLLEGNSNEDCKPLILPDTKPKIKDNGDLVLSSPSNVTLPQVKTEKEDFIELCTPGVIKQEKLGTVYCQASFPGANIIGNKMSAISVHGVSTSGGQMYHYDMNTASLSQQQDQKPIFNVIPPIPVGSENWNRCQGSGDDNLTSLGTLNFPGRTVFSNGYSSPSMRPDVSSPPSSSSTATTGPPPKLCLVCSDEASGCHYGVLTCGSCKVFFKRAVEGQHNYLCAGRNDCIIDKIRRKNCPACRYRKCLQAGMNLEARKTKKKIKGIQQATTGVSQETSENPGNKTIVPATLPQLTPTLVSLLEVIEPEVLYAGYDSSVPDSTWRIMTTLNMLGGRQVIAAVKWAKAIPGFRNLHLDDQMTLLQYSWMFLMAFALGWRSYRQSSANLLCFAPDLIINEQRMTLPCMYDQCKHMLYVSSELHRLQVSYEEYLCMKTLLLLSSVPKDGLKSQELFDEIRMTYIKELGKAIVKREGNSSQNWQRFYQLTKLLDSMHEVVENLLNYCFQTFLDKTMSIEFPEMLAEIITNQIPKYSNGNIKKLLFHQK

breakthrough bleeding = settings: cited from earlier work; for subjects with irregular or prolonged bleeding: Newton et al.; for days of vaginal bleeding: Tyler et al.

CC(=O)c1ccc([C@H]2C[C@@]3(C)[C@@H](CC[C@@]3(O)C(F)(F)C(F)(F)F)[C@@H]3CCC4=CC(=O)CCC4=C32)cc1 [ZK230211]
activity against glucocorticoid receptors (glucocorticoid receptors): substantially inactive

CC(=O)O[C@]1(C(C)=O)CC[C@H]2[C@@H]3C[C@H](C)C4=CC(=O)CC[C@]4(C)[C@H]3CC[C@@]21C [DMPA, depo-medroxyprogesterone acetate]
subjects with irregular or prolonged bleeding (breakthrough bleeding; 9-12th month of use): 34%
days of vaginal bleeding (breakthrough bleeding; between the first and second injection): around 30 % of days
days of vaginal bleeding (breakthrough bleeding; between the second and third injection): ~20 % of days
subjects with irregular or prolonged bleeding (breakthrough bleeding; first 3 months of DMPA): 90%
discontinuation rate due to breakthrough bleeding (breakthrough bleeding; first year of use, Toppozada et al.): ≤ 40%

C[C@@H]1C[C@@H]2C(=C3CCC(=O)C=C31)[C@@H](c1ccc(N(C)C)cc1)C[C@@]1(C)[C@H]2CC[C@@]12CCCO2 [Org 31710, (6α,11β,17β)-11-(4-NMe2-phenyl)-6-Me-4′,5′-dihydrospiro[oestra-4,9-diene-17,2(3′H)-furan]-3-one]
activity against glucocorticoid receptors (glucocorticoid receptors): substantially inactive

C[C@H]1CC2=CC(=O)CCC2=C2[C@@H]1[C@@H]1CC[C@@]3(CCCO3)[C@@]1(C)C[C@@H]2c1ccc(N(C)C)cc1 [Org 31806, (7β,11β,17β)-11-(4-NMe2-phenyl)-7-Me-4′,5′-dihydrospiro(oestra-4,9-diene-17,2′(3′H)-furan)-3-one]
activity against glucocorticoid receptors (glucocorticoid receptors): substantially inactive

(11β,17α)-(4-acetylphenyl)-17,23-epoxy-19,24-dinorchola-4,9,20-trien-3-one [Org 33628]
activity against glucocorticoid receptors (glucocorticoid receptors): substantially inactive
